{"source": "paper PMC6934184", "about": "“Selective DNA-PKcs inhibition extends the therapeutic index of localized radiotherapy and chemotherapy” (The Journal of Clinical Investigation, 2019)", "biological_target": "T1, STK32B (YANK2) (Homo sapiens, UniProt Q9NY57)", "T1 construct": "purchased Thermo Fisher Scientific (Life Technologies) SelectScreen", "T1 sequence (Q9NY57 whole entry)": "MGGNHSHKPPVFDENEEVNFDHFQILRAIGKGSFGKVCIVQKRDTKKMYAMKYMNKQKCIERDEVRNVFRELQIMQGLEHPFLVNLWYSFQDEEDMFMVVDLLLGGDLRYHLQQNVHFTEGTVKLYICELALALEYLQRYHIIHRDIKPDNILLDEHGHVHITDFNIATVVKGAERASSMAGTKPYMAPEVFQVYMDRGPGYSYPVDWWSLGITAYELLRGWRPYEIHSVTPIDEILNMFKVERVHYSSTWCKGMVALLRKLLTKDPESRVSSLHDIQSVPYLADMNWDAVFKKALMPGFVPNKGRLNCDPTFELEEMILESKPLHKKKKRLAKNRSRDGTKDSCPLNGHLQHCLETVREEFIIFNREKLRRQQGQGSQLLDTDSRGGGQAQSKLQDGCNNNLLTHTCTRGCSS", "experiment": "SelectScreen LanthaScreen", "assay_type": "binding", "settings": "read-out: % displacement", "procedure,_shortened": "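NU5455 was profiled across the SelectScreen Broad panel of kinase activity and binding assays. Z'LYTE reactions such as CSF1R ran at apparent Km ATP, while the Adapta CAMK1 assay used ATP listed as 10. Values are given as percent.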"}
{"smiles": "CN(C(=O)CN1CCOCC1)c1ccc2sc3c(-c4cccc5c(=O)cc(N6CC7CCC(C6)O7)oc45)cccc3c2c1", "note": "[NU5455]", "values": [{"measurement": "inhibition at 1 µM", "value": -1.4, "unit": "%"}]}
